Measured values reported in US20100075907A1, “NEUROMEDIN U RECEPTOR AGONISTS AND USES THEREOF” (priority 2006, published 2010).
Non-standard residues stand in square brackets, D forms with d. Residues, ends and D or L forms follow the SMILES beside them. *: point of attachment. Succinimide(1-Et,3-yl) = CCN1C(=O)CC(*)C1=O

Legend:
Mouse NMUR1-CTG = target: T1, Mouse NMUR1-CTG (Mus musculus, UniProt O55040); assay: FLIPR calcium mobilization assay, mouse NMUR1-CTG; assay type: cell-based; design: expressed in transfected cells; host or cells: FLP-In CHO or HEK-293 FLP-In cells (pcDNA5)
T1 sequence (O55040 1-428): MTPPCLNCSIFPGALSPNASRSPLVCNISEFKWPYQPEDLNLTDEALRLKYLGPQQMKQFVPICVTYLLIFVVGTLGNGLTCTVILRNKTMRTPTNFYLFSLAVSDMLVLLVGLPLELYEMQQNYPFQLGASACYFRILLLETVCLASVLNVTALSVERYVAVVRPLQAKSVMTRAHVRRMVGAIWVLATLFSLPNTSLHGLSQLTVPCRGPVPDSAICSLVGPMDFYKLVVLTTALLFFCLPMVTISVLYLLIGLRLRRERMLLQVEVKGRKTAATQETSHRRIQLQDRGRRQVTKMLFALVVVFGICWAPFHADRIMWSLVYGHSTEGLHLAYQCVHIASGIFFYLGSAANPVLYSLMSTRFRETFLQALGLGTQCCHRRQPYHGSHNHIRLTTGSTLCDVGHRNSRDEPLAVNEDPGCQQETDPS
Text: Human, mouse or rat cDNAs encoding NMUR1 or NMUR2 (as described in Howard et al. Nature 406: 70-74 (2000) were subcloned in pcDNA5 (Invitrogen) and transfected into FLP-In CHO cells and HEK-293 FLP-In cells purchased from Invitrogen (Carlsbad, Calif.) using lipofectamine (Invitrogen). The Flp-In system allows integration and expression of a particular gene of interest at a specific genomic location utilizing the Flp recombinase from yeast. The transfected cells were selected by growth in medium containing 200 μg/mL hygromycin (Invitrogen). Populations were frozen at early passage numbers, and these stocks were used for further studies. Stable clones that expressed the mRNAs were identified functionally by FLIPR as well as by RT-PCR. […] Two different rodent NMUR1 cell lines were thus generated: one with the codon as predicted from the genomic databases and another cell line with an engineered methionine (ATG) as the start codon. Additionally, stable cell lines expressing the human receptors were generated in HEK-293/aeq17 cells which stably express the aequorin gene under the CMV promoter. The human NMUR2 cDNA was cloned into pcDNA3.1 and human NMUR1 was subcloned into pIRES-puro (Clontech, Mountain View, Calif.), after transfection cells were selected in media containing G418 and either hygromycin (NMUR2) or puromycin (NMUR1).
The NMU receptors signal primarily through Gαq/11 proteins; therefore calcium mobilization assays can be utilized for functional activity.
Stable cell lines expressing human and or rodent NMUR1 or human NMUR2 receptors were plated at a density of 12,000 cells per well overnight on poly-lysine coated 384-well black-walled plates. The following day, the media was removed from the plates and the cells were subsequently loaded with Fluo-3 (Molecular Probes), a calcium sensitive dye, diluted in FLIPR buffer (1× Hank's buffered saline containing 20 mM HEPES, 0.1% BSA, 2.5 mM probenecid (Sigma) and 1.6 mM TR40). All reagents are from Invitrogen unless otherwise noted. Peptide stocks were resuspended in DMSO at a stock concentration of 2 mM and diluted in FLIPR buffer on the day of the experiment to a 4 μM working stock solution.
After a 90 minute incubation at room-temperature, cell plates were loaded onto a FLIPR (Molecular Devices) to monitor cellular fluorescence (excitation=488 nm; emission=540 nm) before and after compound/peptide addition. Eight to twelve point dose responses were tested on NMUR-expressing cell lines using FLIPR with 1 μM peptide as the highest dose. The response after peptide addition was taken as the maximum fluorescence units minus the fluorescence immediately prior to stimulation for each well. EC50 values were calculated using GraphPad Prism (San Diego, Calif.) software.
In vitro responses of Neuromedin U receptor agonists (NMU1 to NMU25) in the FLIPR assay for human (Table 3), mouse (Table 4) and rat (Table 5) NMUR1 and NMUR2. EC50s are reported in nM values. Percent activity refers to the maximum response at 1 μM compared to the hNMU-25 response at the same concentration. NT=not tested.

hNMUR2 [1] = target: T2, hNMUR2 (Homo sapiens, UniProt Q9GZQ4); assay: 125I-hNMU-25 binding assay, human NMUR2 membranes; design: expressed in transfected cells; host or cells: HEK-293 FLP-In cells (pcDNA5); HEK-293/aeq17 lines (pcDNA3.1) were also made; % inhibition of NMU-25 binding / % Activity: concentration or dose not given beside the values; details: human R2
T2 sequence (Q9GZQ4 whole entry): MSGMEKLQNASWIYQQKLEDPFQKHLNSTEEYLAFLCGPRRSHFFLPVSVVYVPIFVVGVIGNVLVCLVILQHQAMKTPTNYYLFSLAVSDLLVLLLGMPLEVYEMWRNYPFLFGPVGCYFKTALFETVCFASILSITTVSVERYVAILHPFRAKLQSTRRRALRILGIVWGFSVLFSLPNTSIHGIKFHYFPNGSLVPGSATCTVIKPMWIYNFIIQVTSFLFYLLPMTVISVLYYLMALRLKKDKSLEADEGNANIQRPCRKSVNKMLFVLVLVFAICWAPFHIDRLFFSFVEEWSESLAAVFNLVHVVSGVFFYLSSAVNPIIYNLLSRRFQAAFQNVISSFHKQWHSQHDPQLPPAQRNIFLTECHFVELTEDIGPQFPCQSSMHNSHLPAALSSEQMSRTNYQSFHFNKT
Outline: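 Membranes from HEK cells expressing the NMU receptor (2-5 μg) incubated with 0.1 nM 125I-hNMU-25 and test peptides in Tris pH 7.4/MgCl2/EDTA buffer, 80 min at room temperature. Non-specific binding defined with 1 μM hNMU-25. Bound radioactivity collected by filtration and scintillation counted; IC50 from displacement curves.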

hNMUR2 [2] = target: T2, hNMUR2; assay: FLIPR calcium mobilization assay, human NMUR2; assay type: cell-based; design: expressed in transfected cells; host or cells: FLP-In CHO or HEK-293 FLP-In cells (pcDNA5); HEK-293/aeq17 lines (pcDNA3.1) were also made

CCN1C(=O)CC(SC[C@H](NC(C)=O)C(=O)N[C@@H](Cc2ccccc2)C(=O)N[C@@H](CCCNC(=N)N)C(=O)N[C@H](C(=O)N[C@@H](CC(=O)O)C(=O)N[C@@H](CCC(=O)O)C(=O)N[C@@H](CCC(=O)O)C(=O)N[C@@H](Cc2ccccc2)C(=O)N[C@@H](CCC(N)=O)C(=O)N[C@@H](CO)C(=O)N2CCC[C@H]2C(=O)N[C@@H](Cc2ccccc2)C(=O)N[C@@H](C)C(=O)N[C@@H](CO)C(=O)N[C@@H](CCC(N)=O)C(=O)N[C@@H](CO)C(=O)N[C@@H](CCCNC(=N)N)C(=O)NCC(=O)N[C@@H](Cc2ccc(O)cc2)C(=O)N[C@@H](Cc2ccccc2)C(=O)N[C@H](C)C(=O)N[C@@H](Cc2c[nH]c3ccccc23)C(=O)N[C@@H](CCCNC(=N)N)C(=O)N2CCC[C@H]2C(=O)N[C@@H](CCCNC(=N)N)C(=O)N[C@@H](CC(N)=O)C(N)=O)C(C)C)C1=O (stereo partly drawn) [NMU13] (Ac-C(Succinimide(1-Et,3-yl))FRVDEEFQSPFASQSRGYF[dA]WRPRN-NH2)
EC50 (Mouse NMUR1-CTG; FLIPR, mouse NMUR1-CTG): 0.141 µM | IC50 (Mouse NMUR1-CTG; functional data, mouse R1-CTG): 0.014 µM | % Activity (Mouse NMUR1-CTG; functional, mouse R1-CTG, relative to native hNMU responses): 88% | % Activity (Mouse NMUR1-CTG; maximum response at 1 μM compared to hNMU-25, mouse NMUR1-CTG): 73.6% | IC50 (hNMUR2 [1]; binding): > 1 µM | % inhibition of NMU-25 binding (hNMUR2 [1]): 48% | EC50 (hNMUR2 [2]; FLIPR, human NMUR2): > 1 µM | % Activity (hNMUR2 [2]; functional, human R2, relative to native hNMU responses): 0% | % Activity (hNMUR2 [2]; maximum response at 1 μM compared to hNMU-25, human NMUR2): 0.0%
